Laboratory results taken from patent US8633184B2, “Benzoazepin-oxy-acetic acid derivatives as PPAR-delta agonists used for the increase of HDL-C, lower LDL-C and lower cholesterol” (Janssen Pharmaceutica N.V., priority 2006, dated 2014).
Values joined by “and” are separate entries in the source; they are usually repeats but may differ in a detail not shown here. Equal entries are not always repeated. Where two headings read alike, the source gives them in different places.

What was measured:
[1] = Rat study: drug plasma levels (pharmacokinetics); type: in vivo
Description: (§1) Rats carry the majority of serum cholesterol in the HDL lipoprotein fraction while humans carry the majority of serum cholesterol in LDL and VLDL lipoproteins. To mimic a human hypercholesterolemic state in a rodent model, Sprague Dawley rats were fed a diet high in cholesterol (Research Diets, C13002) for 6 days before treatment with the compounds for another 8 days while remaining on the diet. Under this dietary regimen, the vehicle controls (HC: High Cholesterol) typically have serum total cholesterol and LDL-C levels that are increased by 3-8 fold and serum HDL-C is decreased by approximately 30-50% compared with chow diet (lean) controls.
(§2) Compound 7 had no effect on serum triglycerides or liver weights.

[2] = Rat study: drug plasma levels (pharmacokinetics); type: in vivo; settings: for Cmax / half-life / AUC(0-t): Sprague Dawley, plasma
PPARα = target: T1, PPARα (Homo sapiens, UniProt Q07869); test: Transfection assay, GAL4-PPARα LBD luciferase reporter in HEK293 cells; type: cell-based; settings: 18-24 hrs
T1 construct: expressed in transfected cells; host or cells: HEK293
T1 sequence (Q07869 239-466 limits assumed): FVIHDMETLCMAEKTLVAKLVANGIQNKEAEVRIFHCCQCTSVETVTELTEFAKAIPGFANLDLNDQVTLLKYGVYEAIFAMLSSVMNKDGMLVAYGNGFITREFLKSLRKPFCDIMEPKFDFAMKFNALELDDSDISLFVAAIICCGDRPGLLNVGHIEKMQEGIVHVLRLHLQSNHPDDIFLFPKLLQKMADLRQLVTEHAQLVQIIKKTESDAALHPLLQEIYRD
Method: (§3) HEK293 cells were grown in DMEM/F12 medium supplemented with 10% FBS and glutamine (Invitrogen) and incubated in a 5% CO2 incubator at 37° C. The cells were co-transfected using DMRIE-C reagent (Invitrogen) in serum free medium (Opti-MEM, Invitrogen) with two mammalian expression plasmids, one containing the DNA sequence coding for the ligand binding domains of either PPARα, γ or δ fused to the yeast GAL4 DNA binding domain and the other containing the promoter sequence of the yeast GAL4 (UAS) fused to the firefly luciferase cDNA reporter. The next day, the medium was changed to DMEM/F12 medium supplemented with 5% charcoal treated serum (Hyclone) and glutamine. After 6 hrs the cells were trypsinized and seeded at a density of 50,000 cells/well into 96 well plates and incubated overnight as above. The cells were then treated with test compounds or vehicle and incubated for 18-24 hrs as above. Luciferase reporter activity was measured using the Steady-Glo Luciferase Assay Kit from Promega. DMRIE-C Reagent was purchased from GIBCO Cat. No. 10459-014. OPTI-MEM I Reduced Serum Medium was purchased from GIBCO (Cat. No. 31985). Steady-Glo Luciferase Assay Kit was purchased from Promega (Part #E254B).
(§4) A variety of example compounds have been made and tested, with a range of in vitro results. Below, in Table 2, are representative compounds and data; in some cases, where multiple EC50's are shown, multiple measurements were taken. Naturally, different compounds in Formula (I) may have not activities identical to any one compound below.

[3] = tested on: Sprague Dawley rats fed a diet high in cholesterol; test: Rat study: high cholesterol diet, serum lipids and liver weights after 8 days treatment; type: in vivo; settings: for HDL-C / LDL-C / Total Cholesterol / Triglycerides / Liver Weights: 8 days
Description: as §1, §2

PPARγ = target: T2, PPARγ (Homo sapiens, UniProt P37231); test: Transfection assay, GAL4-PPARγ LBD luciferase reporter in HEK293 cells; type: cell-based; settings: 18-24 hrs
T2 construct: expressed in transfected cells; host or cells: HEK293
T2 sequence (P37231 238-503 limits assumed): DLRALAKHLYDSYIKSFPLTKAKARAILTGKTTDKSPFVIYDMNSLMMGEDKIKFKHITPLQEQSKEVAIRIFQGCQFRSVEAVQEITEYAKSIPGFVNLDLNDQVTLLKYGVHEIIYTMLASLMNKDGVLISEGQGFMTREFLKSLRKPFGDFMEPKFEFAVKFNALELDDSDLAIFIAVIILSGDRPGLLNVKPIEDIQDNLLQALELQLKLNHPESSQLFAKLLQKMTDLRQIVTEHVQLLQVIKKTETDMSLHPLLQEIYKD
Method: as §3, §4

PPARδ = target: T3, PPARδ (Homo sapiens, UniProt Q03181); test: Transfection assay, GAL4-PPARδ LBD luciferase reporter in HEK293 cells; type: cell-based; settings: 18-24 hrs
T3 construct: expressed in transfected cells; host or cells: HEK293
T3 sequence (Q03181 211-439 limits assumed): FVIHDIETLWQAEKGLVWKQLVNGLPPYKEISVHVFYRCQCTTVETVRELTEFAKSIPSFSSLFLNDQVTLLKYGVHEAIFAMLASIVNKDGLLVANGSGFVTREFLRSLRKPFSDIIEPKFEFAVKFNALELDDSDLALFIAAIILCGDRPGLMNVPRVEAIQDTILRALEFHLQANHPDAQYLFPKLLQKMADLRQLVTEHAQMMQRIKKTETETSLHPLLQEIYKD
Method: as §3, §4

- drug plasma levels (Cmax and AUC), in words [1]: dose-related increases
- Tmax ([1]; Dose 0.1, Multiple, n = 2): 2.5 h
- Tmax ([1]; Dose 0.3, Multiple): 3 h
- Tmax ([1]; Dose 1, Multiple, n = 2): 4 h
- Tmax ([1]; Dose 3, Single, n = 2): 5.5 h
- AUC(0-t) ([1]; Sprague Dawley, plasma, 0.1 mg/kg, Dose 0.1, Multiple, n = 2, read-out: AUC0-24): 772 ng·h/mL
- half-life ([1]; Sprague Dawley, plasma, 0.3 mg/kg, Dose 0.3, Multiple, read-out: t½): ~1320 min
- AUC(0-t) ([1]; Sprague Dawley, plasma, 3 mg/kg, Dose 3, Multiple, read-out: AUC0-24): 37100 ng·h/mL
- Tmax ([2]; Dose 3, Multiple): 5 h
- Cmax ([2]; 0.1 mg/kg, Dose 0.1, Multiple, n = 2): 57 ng/mL
- half-life ([2]; 0.1 mg/kg, Dose 0.1, Multiple, n = 2, read-out: t½): ~780 min
- Cmax ([2]; 0.3 mg/kg, Dose 0.3, Multiple): 124 ng/mL
- AUC(0-t) ([2]; 0.3 mg/kg, Dose 0.3, Multiple, read-out: AUC0-24): 1640 ng·h/mL
- Cmax ([2]; 1 mg/kg, Dose 1, Multiple, n = 2): 595 ng/mL
- AUC(0-t) ([2]; 1 mg/kg, Dose 1, Multiple, n = 2, read-out: AUC0-24): 10900 ng·h/mL
- Cmax ([2]; 3 mg/kg, Dose 3, Multiple): 2030 ng/mL
- half-life ([2]; 3 mg/kg, Dose 3, Multiple, read-out: t½): ~2160 min
- Cmax ([2]; 3 mg/kg, Dose 3, Single, n = 2): 733 ng/mL
- AUC(0-t) ([2]; 3 mg/kg, Dose 3, Single, n = 2, read-out: AUC0-24): 14200 ng·h/mL
- half-life ([2]; 3 mg/kg, Dose 3, Single, n = 2, read-out: t½): ~1740 min
- EC50 (PPARα): > 3 µM
- Liver Weights ([3]; 0.3 mg/kg): 25.0 ± 0.8
- Liver Weights ([3]; 1 mg/kg): 23.9 ± 0.5
- Liver Weights ([3]; 3 mg/kg): 27.2 ± 0.9
- liver weights (effect in words) ([3]; 8 days treatment): no effect
- EC50 (PPARγ): > 3 µM
- EC50 (PPARδ): 14.5 nM and 18.9 nM
Compound: O=C(O)COc1ccc2c(c1)CCN(Cc1ccc(-c3ccc(C(F)(F)F)cc3)s1)CC2 [compound 7]
- HDL-C ([3]; 0.1 mg/kg): 24.2 ± 2.9 mg/dL
- LDL-C ([3]; 0.1 mg/kg): 32.7 ± 4.7 mg/dL
- Total Cholesterol ([3]; 0.1 mg/kg): 239.0 ± 22.4 mg/dL
- Triglycerides ([3]; 0.1 mg/kg): 269.8 ± 27.8 mg/dL
- HDL-C ([3]; 0.3 mg/kg): 29.6 ± 1.4 mg/dL
- LDL-C ([3]; 0.3 mg/kg): 31.2 ± 1.5 mg/dL
- Total Cholesterol ([3]; 0.3 mg/kg): 233.2 ± 9.5 mg/dL
- Triglycerides ([3]; 0.3 mg/kg): 264.7 ± 29.8 mg/dL
- HDL-C ([3]; 1 mg/kg): 31.8 ± 0.9 mg/dL
- LDL-C ([3]; 1 mg/kg): 24.4 ± 1.3 mg/dL
- Total Cholesterol ([3]; 1 mg/kg): 173.3 ± 7.9 mg/dL
- Triglycerides ([3]; 1 mg/kg): 237.7 ± 25.4 mg/dL
- HDL-C ([3]; 3 mg/kg): 39.6 ± 1.6 mg/dL
- LDL-C ([3]; 3 mg/kg): 20.6 ± 1.5 mg/dL
- Total Cholesterol ([3]; 3 mg/kg): 152.2 ± 8.5 mg/dL
- Triglycerides ([3]; 3 mg/kg): 299.5 ± 35.9 mg/dL
- LDL-C levels (effect in words) ([3]; 8 days treatment): significant decreases
- serum total cholesterol levels (effect in words) ([3]; 8 days treatment): significant decreases
- serum triglycerides (effect in words) ([3]; 8 days treatment): no effect
- HDL-C levels (effect in words) ([3]; 8 days treatment, achieving the levels of the chow fed controls): significantly increased
